From patent US5101059A, “Amino acid protecting groups” (Research Corporation Technologies, Inc., priority 1989, dated 1992)

Key:
Type in all cases: physicochemical
[1] = Base deblocking of substituted urethanes (U-PCA) by various amines; settings: dichloromethane, room temperature
Description: 1. General Procedure for Studying the Base Deblocking of the Urethanes Fmoc-PCA, BTS-Fmoc-PCA, DT-Fmoc-PCA, and TMS-Fmoc-PCA: A mixture of urethane (0.05 mmol) in a solution prepared from an equal volume of base (2.5 mmol, 50 eq.) and dichloromethane was stirred at room temperature. The course of the reaction was monitored by TLC with an eluant consisting of Skelly B--ether (3:1).

[2] = Base deblocking and stability of 9-xanthenylmethyl and 9,10-dihydro-9-anthracenylmethyl derivatives; settings: room temperature; for time needed to complete the deblocking: DBU 100 eq.; for time needed to complete the deblocking / time for evidence for initiation of the deblocking: DMF; for time for evidence for initiation of the deblocking: piperidine 100 eq.
Experimental: 1. Deblocking of Xmoc-PCA in 1,5,9-Triazabicyclo[4,4,0]dec-5-ene Solution: To a solution of 7.90 mg (0.0216 mmol) of Xmoc-PCA in 0.6 mL of pyridine was added 0.15 g (1.078 mmol 50 eq.) of 1,5,9-triazabicyclo[4,4,0]dec-5-ene (TBD). The mixture was stirred at room temperature and monitored by TLC with an eluant consisting of Skelly B--EtOAc (3:1). Complete deblocking had occurred after 25 minutes.
2. Base Deblocking of 9-Xanthenylmethyl Phenylacetate: a. In Piperdine Solution: To a solution of 13.39 mg of 9-XM-phenylacetate in 1.6 mL of DMF was added 0.4 mL (100 eq.) of piperidine. The mixture was stirred at room temperature. […] In DBU Solution: To a solution of 6.36 mg of 9-XM-phenylacetate in 0.9 mL of DMF was added 0.3 mL of 1,8-diazabicyclo[5,4,0]-undec-7-ene (DBU) (100 eq.). The mixture was stirred at room temperature. […] In TBD Solution: To a solution of 7.91 mg of 9-XM-phenylacetate in 0.3 mL of pyridine was added 100 mg (30 eq.) of 1,5,9-triazabicyclo[4,4,0]dec-5-ene. The mixture was stirred at room temperature.
1. General Procedure for Studying the Stabilities of DHAmoc-PCA, Xmoc-PCA, and DC-Xmoc-PCA in Piperidine Solution To a solution of urethane (0.0294 mmol) in 1.2 mL of DMF was added 0.3 mL (2.94 mmol, 100 eq.) of piperidine. The mixture was stirred at room temperature and monitored by TLC with an eluant consisting of Skelly B--EtOAc (3:1). Evidence for initiation of the deblocking required 2 minutes for DC-Xmoc-PCA, 3.5 hours for Xmoc-PCA, and 7 hours for DHAmoc-PCA.
2. General Procedure for Studying the Deblocking of Xmoc-PCA and DHAmoc-PCA in DBU Solution: To a solution of urethane (0.0324 mmol) in 0.5 mL of DMF was added 0.5 mL (3.24 mmol, 100 eq.) of 1,8-diazabicyclo[5,4,0]undec-7-ene. The mixture was stirred at room temperature and monitored by TLC with the eluant consisting of Skelly B--EtOAc (3:1). The time needed to complete the deblocking was 3.5 hours for Xmoc-PCA, and 6 hours for DHAmoc-PCA.

[3] = General statements on cleavage by piperidine or fluoride ion
[4] = Base deblocking of FM-Fmoc-PCA; settings: room temperature
Experimental: A. Base Deblocking of FM-Fmoc-PCA: 1. In Piperidine Solution: To a solution of 24.96 mg of FM-Fmoc-PCA in 0.5 mL of DMF was added 0.5 mL (100 eq.) of piperidine. The mixture was stirred at room temperature. […] 2. In DBN Solution: To a solution of 12.81 mg of FM-Fmoc-PCA in 0.15 mL of DMF was added 0.15 mL (50 eq.) of 1,5-diazabicyclo[4,3,0]nonene-7 (DBN). The mixture was stirred at room temperature. […] 3. In DBU Solution: To a solution of 10.58 mg of FM-Fmoc-PCA in 0.15 mL of DMF was added 0.15 mL (50 eq.) of 1,8-diazabicyclo[5,4,0]undec-7-ene (DBU). The mixture was stirred at room temperature. […] 4. In TBD: To a solution of 18.95 mg of FM-Fmoc-PCA in 0.2 mL of DMF and 0.2 mL of pyridine was added 100 mg (20 eq.) of 1,5,9-triazabicyclo[4,4,0]dec-5-ene (TBD). The mixture was stirred at room temperature.

[5] = morpholine 50 eq., significant aminodibenzofulvene type adduct formed
[6] = piperidine 50 eq., significant aminodibenzofulvene type adduct formed

For CC(C)(C)c1ccc2c(c1)C(COC(=O)Nc1ccc(Cl)cc1)c1cc(C(C)(C)C)ccc1-2 [DT-Fmoc-PCA, 2,7-Di-tert-butyl-9-Fluorenylmethyl p-Chlorocarbanilate], the “Time for Complete Deblocking” value ([1]; ethanolamine 50 eq.) was 4 h, the “Time for Complete Scavenging of Dibenzofulvene Analogs” value (“Time … of Dibenzofulvene Analogs” for short) ([1]; morpholine 50 eq.) was 13 hr and the “Time for Complete Deblocking” value [1, 5] was 10 h. The “Time … of Dibenzofulvene Analogs” value ([1]; piperidine 50 eq.) was 84 min, the “Time for Complete Deblocking” value [1, 6] was 0.2 h and the “Time for Complete Deblocking” value ([1]; t-butylamine 50 eq.) was 10 h.
For O=C(Nc1ccc(Cl)cc1)OCC1c2ccccc2Oc2ccccc21 [Xmoc-PCA, 9-Xanthenylmethyl p-Chlorocarbanilate], the “time needed to complete the deblocking” value [2] was 3.5 h, the “Time for Complete Deblocking” value ([2]; TBD 50 eq., pyridine) was 25 min and the “time for evidence for initiation of the deblocking” value (from here on “time for evidence for initiation”) [2] was 3.5 h.
In the case of O=C(Nc1ccc(Cl)cc1)OCC1c2ccccc2-c2ccccc21 [Fmoc-PCA, 9-fluorenylmethyl p-chlorocarbanilate, reference compound], the “Time for Complete Deblocking” value ([1]; ethanolamine 50 eq.) is reported as 0.75 h, the “Time … of Dibenzofulvene Analogs” value ([1]; morpholine 50 eq.) is reported as 2.5 hr and the “Time for Complete Deblocking” value [1, 5] is reported as 1.25 h. The “Time … of Dibenzofulvene Analogs” value ([1]; piperidine 50 eq.) was 68 min, the “Time for Complete Deblocking” value [1, 6] was under 0.05 h and the “Time for Complete Deblocking” value ([1]; t-butylamine 50 eq.) was 5 h.
For O=C(Nc1ccc(Cl)cc1)OCC1c2cc(Cl)ccc2Oc2ccc(Cl)cc21 [DC-Xmoc-PCA, 2,7-Dichloro-9-xanthenylmethyl p-Chlorocarbanilate], the “time for evidence for initiation” value [2] was 0.033 h.
With O=C(Nc1ccc(Cl)cc1)OCC1c2ccccc2Oc2ccccc21 [Xmoc] the “deblocking by / stability to piperidine” value [3] was “stable to piperidine”.
In the case of CC(C)[Si](C(C)C)(C(C)C)C1(COC(=O)Nc2ccccc2)c2ccccc2-c2ccccc21 [derivative F], the “cleavage by fluoride ion” value ([3]; inorganic base, fluoride ion) is reported as “cleaved by the inorganic base, fluoride ion” and the “deblocking by / stability to piperidine” value [3] is reported as “stable to piperidine”.
In the case of O=C(Nc1ccc(Cl)cc1)OCC1(CC2c3ccccc3-c3ccccc32)c2ccccc2-c2ccccc21 [FM-Fmoc-PCA, 9-(9'-Fluorenylmethyl)-9-fluorenylmethyl p-Chlorocarbanilate], the “time at which deblocking had begun” value ([4]; DBN 50 eq., DMF) is reported as at most 10 min, the “Time for Complete Deblocking” value ([4]; DBN 50 eq., DMF, still not complete) is reported as over 24 h and the “Time for Complete Deblocking” value ([4]; DBU 50 eq., DMF) is reported as 12 h. The “time at which deblocking had begun” value ([4]; DBU 50 eq., DMF) was at most 10 min, the start of deblocking ([4]; TBD 20 eq., DMF and pyridine) was “immediately” and the “time for complete deblocking-scavenging reaction” value ([4]; TBD 20 eq., DMF and pyridine) was 1 h. For the same molecule, the “time at which first deblocking was detected” value ([4]; piperidine 100 eq., DMF) was 12 h.
For O=C(Nc1ccc(Cl)cc1)OCC1c2ccccc2Cc2ccccc21 [DHAmoc-PCA, 3,10-Dihydro-9-anthracenylmethyl p-Chlorocarbanilate], the “time needed to complete the deblocking” value [2] was 6 h and the “time for evidence for initiation” value [2] was 7 h.
